Test results: PMC11520566, “Discovery of pyrazole-based analogs as CDK2 inhibitors with apoptotic-inducing activity: design, synthesis and molecular dynamics study” (RSC Advances, 2024)

Key:
[1] = test system: DU-145; test: NCI 60 five dose assay, Prostate cancer; assay type: cell-based, human
[2] = test system: SW-620; test: NCI 60 five dose assay, Colon cancer; assay type: cell-based, human
[3] = test system: CDK2; test: Western blot of CDK2 expression in HCT-116 cells; assay type: cell-based; conditions: 3 μM, 48 h, vs vehicle treated cells
Description: The method of sodium dodecyl sulfate polyacrylamide gel electrophoresis (SDS-PAGE) is employed to separate proteins based on their size. When combined with western blotting (immunoblotting), both techniques are commonly used to identify the presence and/or relative abundance of a specific protein within a sample containing a complex mixture of proteins.[36] In this process, each sample's total protein content is loaded onto a gel and separated by electrophoresis, allowing proteins to migrate through the gel matrix under the influence of an electric current. To facilitate protein migration, the proteins are initially denatured and given a negative charge by exposure to a detergent like SDS. A molecular weight marker with known-sized bands assists in identifying proteins of interest. […] Typically, the secondary antibody is linked to an enzyme that generates luminescence upon reacting with its substrate. The intensity of the luminescence, directly correlating with the amount of protein that interacted with the antibody, is captured by a Bio-Rad Imager.[36] […]
HCT-116 cells were treated with either 3 μM of compound 4 and 1 μM of compound 9 and incubated 48 h. The cells were lysed by 1× RIPA buffer containing protease and phosphatase inhibitors to quantify the protein concentration by BCA protein assay. […]

[4] = test system: HCT-116; test: NCI 60 five dose assay, Colon cancer; assay type: cell-based, human
[5] = test system: NCI/ADR-RES; test: NCI 60 five dose assay, Ovarian cancer; assay type: cell-based, human
[6] = test system: KM12; test: NCI 60 single dose screen, Colon cancer; assay type: cell-based, human; conditions: single dose 10 μM
Description: (§1) The newly synthesized pyrazoles 2a–g, 7a–d, 8a and b, 9, and 10 were submitted to the National Cancer Institute (NCI) Developmental Therapeutics Program (http://www.dtp.nci.nih.gov) for assessment of their potential antiproliferative activity against a panel of NCI 60 cancer cell lines. All compounds were approved for screening against the approved 60 cancer cell lines at a single dose of 10 μM. The human cancer cell lines were derived from 9 variant cancer types including leukemia, melanoma, lung, colon, CNS, ovarian, renal, prostate and breast cancers. The results are presented as percentage of growth inhibition (GI%) of the screened compounds against the full panel of cell lines.
(§2) Under sterile conditions, the cell lines were grown in RPMI 1640 media (Gibco, NY, USA) supplemented with 10% fetal bovine serum (Biocell, CA, USA), and […] cell/mL was used to test the growth inhibition activity of the synthesized compounds. The compounds with concentrations ranging from 0.01 to 100 μM were prepared in phosphate buffer saline. Each compound was initially solubilized in dimethyl sulfoxide (DMSO); however, each final dilution contained less than 1% DMSO. Solutions of different concentrations (0.2 mL) were pipetted into the separate well of a microtiter tray in duplicate. Cell culture (1.8 mL) containing a cell population of […] cells per mL was pipetted into each well. Controls, containing only phosphate buffer saline and DMSO at identical dilutions, were also prepared in the same manner. These cultures were incubated in a humidified incubator at 37 °C. The incubator was supplied with 5% CO2 atmosphere. After 48 h, the cells in each well were diluted 10 times with saline and counted using a Coulter counter. The counts were corrected for the dilution.[34]

[7] = test system: HCT-116; test: NCI 60 single dose screen, Colon cancer; assay type: cell-based, human; conditions: single dose 10 μM
Description: as §1, §2

[8] = test system: HT29; test: NCI 60 single dose screen, Colon cancer; assay type: cell-based, human; conditions: single dose 10 μM
Description: as §1, §2

[9] = test system: IGROV1; test: NCI 60 five dose assay, Ovarian cancer; assay type: cell-based, human
[10] = test system: SR; test: NCI 60 five dose assay, Leukemia; assay type: cell-based, human
[11] = test system: RPMI-8226; test: NCI 60 five dose assay, Leukemia; assay type: cell-based, human
[12] = test system: ACHN; test: NCI 60 five dose assay, Renal cancer; assay type: cell-based, human
[13] = test system: HOP-62; test: NCI 60 five dose assay, Non-small cell lung cancer; assay type: cell-based, human
[14] = Homo sapiens, read-out: LC50 (the source's name)

With `CC(=NNc1ccc(S(N)(=O)=O)cc1)c1ccc(NN=C2C(=O)NN=C2Nc2ccccc2)cc1` [Compound 4, 4-(2-(1-(4-(2-(5-oxo-3-(phenylamino)-1,5-dihydro-4H-pyrazol-4-ylidene)hydrazinyl)phenyl)ethylidene)hydrazinyl)benzene sulfonamide] as the compound, how does the GI50 ([1]; Homo sapiens) read?
The GI50 was 3.21 µM.

And the CC50 [1, 14]?
The CC50 was 32.2 µM.

What about the “Percent Growth” value ([1]; Log10 Concentration -4.0 Molar) of the same compound?
The value was -100%.

What about the “Percent Growth” value ([1]; Log10 Concentration -5.0 Molar) of the same compound?
Its value is 2%.

What about the “Percent Growth” value ([1]; Log10 Concentration -6.0 Molar) of the same compound?
The value was 99%.

What about the “Percent Growth” value ([1]; Log10 Concentration -7.0 Molar) of the same compound?
The value was 106%.

And the “Percent Growth” value ([1]; Log10 Concentration -8.0 Molar)?
Its value is 100%.

What about the GI50 ([2]; Homo sapiens) of the same compound?
Its GI50 is 3.18 µM.

What about the CC50 [2, 14] of the same compound?
Its CC50 is 58.8 µM.

And the “Percent Growth” value ([2]; Log10 Concentration -4.0 Molar)?
The value was -67%.

What about the “Percent Growth” value ([2]; Log10 Concentration -5.0 Molar) of the same compound?
The value was 7%.

And the “Percent Growth” value ([2]; Log10 Concentration -6.0 Molar)?
The value was 93%.

What about the “Percent Growth” value ([2]; Log10 Concentration -7.0 Molar) of the same compound?
Its value is 102%.

And the “Percent Growth” value ([2]; Log10 Concentration -8.0 Molar)?
The value was 102%.

What about the “expression of CDK-2 (western blot)” value [3] of the same compound?
Its value is “inhibitions in the expression of CDK-2”.

And the GI50 ([4]; Homo sapiens)?
The GI50 was 3.04 µM.

And the CC50 [4, 14]?
The CC50 was 32 µM.

What about the “Percent Growth” value ([4]; Log10 Concentration -4.0 Molar) of the same compound?
Its value is -100%.

What about the “Percent Growth” value ([4]; Log10 Concentration -5.0 Molar) of the same compound?
The value was 1%.

What about the “Percent Growth” value ([4]; Log10 Concentration -6.0 Molar) of the same compound?
Its value is 96%.

And the “Percent Growth” value ([4]; Log10 Concentration -7.0 Molar)?
Its value is 104%.

What about the “Percent Growth” value ([4]; Log10 Concentration -8.0 Molar) of the same compound?
Its value is 98%.

And the GI50 ([5]; Homo sapiens)?
Its GI50 is over 100 µM.

And the CC50 [5, 14]?
The CC50 was over 100 µM.

What about the “Percent Growth” value ([5]; Log10 Concentration -4.0 Molar) of the same compound?
Its value is 65%.

What about the “Percent Growth” value ([5]; Log10 Concentration -5.0 Molar) of the same compound?
The value was 86%.

What about the “Percent Growth” value ([5]; Log10 Concentration -6.0 Molar) of the same compound?
The value was 96%.

And the “Percent Growth” value ([5]; Log10 Concentration -7.0 Molar)?
The value was 101%.

And the “Percent Growth” value ([5]; Log10 Concentration -8.0 Molar)?
The value was 97%.

What about the GI% [6] of the same compound?
Its GI% is 96.31%.

And the GI% [7]?
The GI% was 99.70%.

What about the GI% [8] of the same compound?
The GI% was 95.46%.

And the GI50 ([9]; Homo sapiens, IGROV-1)?
The GI50 was 4.5 µM.

What about the CC50 ([9]; Homo sapiens, IGROV-1, read-out: LC50 (the source's name)) of the same compound?
The CC50 was 43.2 µM.

What about the “Percent Growth” value ([9]; Log10 Concentration -4.0 Molar) of the same compound?
The value was -97%.

What about the “Percent Growth” value ([9]; Log10 Concentration -5.0 Molar) of the same compound?
Its value is 32%.

What about the “Percent Growth” value ([9]; Log10 Concentration -6.0 Molar) of the same compound?
The value was 85%.

And the “Percent Growth” value ([9]; Log10 Concentration -7.0 Molar)?
The value was 94%.

What about the “Percent Growth” value ([9]; Log10 Concentration -8.0 Molar) of the same compound?
Its value is 90%.

What about the GI50 ([10]; Homo sapiens) of the same compound?
Its GI50 is 1.74 µM.

What about the CC50 [10, 14] of the same compound?
The CC50 was 23.6 µM.

And the “Percent Growth” value ([10]; Log10 Concentration -4.0 Molar)?
The value was -87%.

What about the “Percent Growth” value ([10]; Log10 Concentration -5.0 Molar) of the same compound?
The value was -28%.

What about the “Percent Growth” value ([10]; Log10 Concentration -6.0 Molar) of the same compound?
Its value is 75%.

What about the “Percent Growth” value ([10]; Log10 Concentration -7.0 Molar) of the same compound?
The value was 93%.

And the “Percent Growth” value ([10]; Log10 Concentration -8.0 Molar)?
The value was 85%.

And the GI50 ([11]; Homo sapiens)?
The GI50 was 3.36 µM.

And the CC50 [11, 14]?
Its CC50 is over 100 µM.

What about the “Percent Growth” value ([11]; Log10 Concentration -4.0 Molar) of the same compound?
Its value is -15%.

And the “Percent Growth” value ([11]; Log10 Concentration -5.0 Molar)?
The value was 12%.

And the “Percent Growth” value ([11]; Log10 Concentration -6.0 Molar)?
The value was 92%.

And the “Percent Growth” value ([11]; Log10 Concentration -7.0 Molar)?
Its value is 101%.

And the “Percent Growth” value ([11]; Log10 Concentration -8.0 Molar)?
Its value is 101%.

And the GI50 ([12]; Homo sapiens)?
Its GI50 is 5.9 µM.

What about the CC50 [12, 14] of the same compound?
The CC50 was 43 µM.

What about the “Percent Growth” value ([12]; Log10 Concentration -4.0 Molar) of the same compound?
Its value is -100%.

What about the “Percent Growth” value ([12]; Log10 Concentration -5.0 Molar) of the same compound?
Its value is 36%.

And the “Percent Growth” value ([12]; Log10 Concentration -6.0 Molar)?
The value was 96%.

What about the “Percent Growth” value ([12]; Log10 Concentration -7.0 Molar) of the same compound?
Its value is 104%.

And the “Percent Growth” value ([12]; Log10 Concentration -8.0 Molar)?
Its value is 94%.

What about the GI50 ([13]; Homo sapiens) of the same compound?
Its GI50 is 2.05 µM.

And the CC50 [13, 14]?
The CC50 was 30.3 µM.

And the “Percent Growth” value ([13]; Log10 Concentration -4.0 Molar)?
Its value is -78%.

And the “Percent Growth” value ([13]; Log10 Concentration -5.0 Molar)?
The value was -24%.

What about the “Percent Growth” value ([13]; Log10 Concentration -6.0 Molar) of the same compound?
The value was 84%.

And the “Percent Growth” value ([13]; Log10 Concentration -7.0 Molar)?
The value was 95%.

What about the “Percent Growth” value ([13]; Log10 Concentration -8.0 Molar) of the same compound?
The value was 91%.
